Structures can show the parent of a compound that is named as a salt.
Legend:
[1] = system: pruritus mice model to which morphine had been intracisternally administered; assay: Anti-pruritic effect in pruritus mice model to which morphine had been intracisternally administered; type: in vivo; conditions: Mus musculus; oral administration, male ICR mice, inhibition of morphine-induced scratching behavior; read-out: ED50
Experimental: As experimental animals, male ICR (Cr1j: CD1 (ICR): Charles River Japan) mice were used at 5 to 6-week old. The mice were placed in an acrylic cage (colorless and transparent, W 13.5 cm×D 9.5 cm×H 40 cm) for observing scratching behavior for 30 minutes or more to thereby allow the mice to get used to the observation environment, and the test substance solutions were forcedly orally administered to the test substance-administered groups. In addition, an administration vehicle was forcedly orally administered to the normal control group and the pathological control group. A necessary amount of the test substance was weighed and formed into a micropowder in an agate mortar, an administration vehicle, a 0.5 w/v % methyl cellulose 400 solution (Wako Pure Chemical Industries Ltd.) was added little by little, and preparation was performed by suspending or dissolving so as to give an intended concentration (from 0.025 to 3 mg/ml). The test doses were preset to suitable doses in the range in which the maximum dose is 30 mg/10 ml/kg.
Based on 30 minutes after the forced oral administration of the test substance as a criterion, the time for the intracisternal administration of morphine was suitably set up to 120 minutes after at the maximum, with consideration for the times of maximum plasma concentration of the respective test substances, in the case when the in vivo pharmacokinetics of the test substance had been confirmed in advance. Furthermore, saline was intracisternally administered to the normal control group, and the above-mentioned morphine solution was intracisternally administered to the pathogenic control group, so as to be 5 μL/site at the same time as that of the test substance group after the forced oral administration of the administration vehicle in either case.
The behavior of each mouse within 60 minutes from the intracisternal administration of the morphine solution or saline was recorded by a digital video camera that was installed immediately above the acrylic cage, the images were stored in a digital video recorder, and the number of frequency of the scratching behavior was measured. The number of frequency of the scratching behavior was measured with deeming a behavior in which the mouse raised its hindlimb, scratched the facial surface and the peripheral sites thereof, and got the hindlimb off from the body within 30 minutes from after the intracisternal administration of the morphine or saline as one time.
The anti-pruritic effect of each test substance was obtained as follows. As an inhibition ratio against the number of frequency of the scratching behavior on the pathological control group, the inhibition ratio (%) of the respective individuals and the average value thereof were calculated from the following formula, and an ED50 value was calculated based on the obtained inhibition ratio. Inhibition ratio of each individual (%)={1−(A−Vehicle)/(Morphine−Vehicle)}×100 Morphine: the average of the scratching number of the pathological control group Vehicle: the average of the scratching number of the normal control group A: the scratching number of each individual in the test substance-administered group

[2] = Plasma concentration of test substance at ED50 value (mice, LC/MS/MS); type: in vivo; conditions: at the ED50 value, at time of morphine administration, oral, linear regression from two doses
Experimental: The concentration of the test substances in blood plasma was confirmed by using mice of the same week-old for the same dose as that used in the evaluation of the anti-pruritic effect. The test substance was administered by forced oral administration of an administration vehicle prepared in a similar manner to that in the evaluation of the anti-pruritic effect under a non-fasting condition. The blood samples were collected from the orbital venous plexus, within from 15 minutes after the administration of the test substance to after 180 minutes at the maximum, for multiple times including the timing at which the morphine solution was intracisternally administered, under inhalation anesthesia with diethyl ether or isoflurane using a heparin-treated hematocrit tubes. The collected blood samples were immediately ice-cooled and centrifuged at 1,800 g for 15 minutes at 4° C., and the plasma fractions were transferred and stored under freezing at −30° C. or less until measurement.
The concentrations of the test substances in plasma were measured using LC/MS/MS. Furthermore, as the measurement samples for LC/MS/MS, the supernatants obtained by adding an internal standard substance and acetonitrile in an amount within a range from 5-fold to 10-fold of the amount of the plasma to the collected plasma samples, and removing proteins therefrom, was used.

hERG current = hERG current (Homo sapiens (Human), UniProt Q12809); assay: cell-based
hERG current, sequence (Q12809 whole entry): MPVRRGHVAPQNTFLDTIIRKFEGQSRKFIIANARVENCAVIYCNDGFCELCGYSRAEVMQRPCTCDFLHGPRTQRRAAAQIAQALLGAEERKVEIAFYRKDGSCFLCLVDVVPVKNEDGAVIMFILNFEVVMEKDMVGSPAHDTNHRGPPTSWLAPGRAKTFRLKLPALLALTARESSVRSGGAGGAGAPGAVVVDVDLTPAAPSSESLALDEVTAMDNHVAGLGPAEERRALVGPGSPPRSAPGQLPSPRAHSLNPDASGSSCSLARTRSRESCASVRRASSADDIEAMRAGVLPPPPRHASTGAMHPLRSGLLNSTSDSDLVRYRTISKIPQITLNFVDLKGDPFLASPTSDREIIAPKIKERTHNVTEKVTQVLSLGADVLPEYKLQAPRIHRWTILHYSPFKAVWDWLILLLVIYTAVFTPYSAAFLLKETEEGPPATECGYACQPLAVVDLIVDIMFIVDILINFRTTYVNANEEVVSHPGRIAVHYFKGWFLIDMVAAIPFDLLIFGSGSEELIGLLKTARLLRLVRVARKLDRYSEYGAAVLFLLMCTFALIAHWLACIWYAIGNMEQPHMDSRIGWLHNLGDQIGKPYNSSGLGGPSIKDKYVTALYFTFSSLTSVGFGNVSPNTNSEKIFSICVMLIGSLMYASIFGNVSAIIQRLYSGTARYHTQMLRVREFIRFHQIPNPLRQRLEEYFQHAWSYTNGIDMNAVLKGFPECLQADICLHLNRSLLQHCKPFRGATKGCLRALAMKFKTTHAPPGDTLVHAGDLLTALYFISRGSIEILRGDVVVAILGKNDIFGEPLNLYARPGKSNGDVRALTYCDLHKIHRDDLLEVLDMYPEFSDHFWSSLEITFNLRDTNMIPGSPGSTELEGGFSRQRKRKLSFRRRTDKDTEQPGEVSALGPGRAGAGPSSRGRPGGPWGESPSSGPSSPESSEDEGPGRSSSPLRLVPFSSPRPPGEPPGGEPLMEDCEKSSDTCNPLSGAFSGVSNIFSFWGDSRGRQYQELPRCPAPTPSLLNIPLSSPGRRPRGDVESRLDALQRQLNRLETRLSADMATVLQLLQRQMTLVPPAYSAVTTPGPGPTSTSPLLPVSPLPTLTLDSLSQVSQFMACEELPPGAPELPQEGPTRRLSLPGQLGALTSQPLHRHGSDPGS
Description: A: the suppression rate (%) of the test substance in each cell
B: the average suppression rate (%) of the vehicle control group

in vitro = in vitro ADME, mice; conditions: Crl:CD-1 (ICR), mouse, pH 7.4; murine serum, equilibrium dialysis, 37° C., 5 to 6 hours; read-out: Protein binding rate (converted)
Experimental: The protein binding rate was determined by equilibrium dialysis method using the RED Device (8K MWCO, Rapid Equilibrium Dialysis Device, Thermo Scientific). The test substances that had been dissolved in DMSO were added to the serum that was collected from Crl: CD-1 (ICR) mice fasted overnight, so that the final concentration of DMSO became 1% (v/v). The serum to which the test substance had been added was added to the inner side of the dialysis membrane of the RED Device, and PBS (phosphate buffer saline, pH 7.4) containing 0.01% (v/v) Tween 80 was added to the outside in accordance with the method for using the RED Device and incubated at 37° C. for 5 to 6 hours with ellipsoidal shaking at 100 rpm so that the concentration of the unbound test substance in the serum and the concentration of the test substance in the PBS reached equilibrium. After the incubation was completed, the respective solutions were collected and stored under freezing at −60° C. or less as measurement samples. The proteins were removed from the measurement sample by adding acetonitrile in an amount of 5-fold or more of the amount of the internal standard substance and the serum sample, and the supernatants were measured by LC/MS/MS (liquid chromatograph—triple quadrupole mass spectrometer). The serum samples were measured after suitably diluting with distilled water as necessary.
A: the concentration of the test substance in the PBS sample
B: the concentration of the test substance in the serum sample

hERG = hERG (Homo sapiens (Human), UniProt Q12809); assay: Safety margin against hERG inhibitory activity; conditions: hERG IC50×1000/{concentration in plasma at ED50×(1−protein binding rate/100)}
Experimental: In order to compare the risks of extension of QT interval prolongation in the electrocardiogram among the test substances, the safety margins against the hERG inhibitory effect were calculated. […] Therefore, the following formula was used for calculating the safety margin, and the obtained values were described in Table 7. Safety margin against hERG inhibitory effect=IC50×1000/{concentration in plasma×(1−protein binding rate/100)}
IC50: the IC50 value in a hERG inhibition assay (μM)
Plasma concentration: the plasma concentration of test substance (nM) at the ED50 value in the test for evaluating the anti-pruritic effect in the morphine model
Protein binding rate: the protein binding rate (%) in the protein binding assay in murine serum

SMILES	ED50 [1]	Plasma concentration of test substance [2]	IC50 (hERG current)	fraction unbound (in vitro)	Safety margin (hERG)
CC[C@]1(c2cc(NS(=O)(=O)C3CC3)ccc2F)[C@@H]2CN(CCCC3CCC(F)(F)CC3)C[C@@H]21 [Example 5-(b), N-(3-{(1R,5S,6r)-3-[3-(4,4-difluorocyclohexyl)propyl]-6-ethyl-3-azabicyclo[3.1.0]hexan-6-yl}-4-fluorophenyl)cyclopropanesulfonamide hydrochloride]	1.7 mg/kg	116 nM	89 nM	0.005	153
CC[C@]1(c2cccc(NS(=O)(=O)C3CC3)c2)[C@@H]2CN(CCCN3CCCC(F)(F)C3)C[C@@H]21 [Example 16-(b), N-(3-{(1R,5S,6r)-3-[3-(3,3-difluoropiperidin-1-yl)propyl]-6-ethyl-3-azabicyclo[3.1.0]hexan-6-yl}phenyl)cyclopropanesulfonamide hydrochloride]	5.7 mg/kg	44.5 nM	640 nM	0.246	58
CC[C@]1(c2cc(NS(=O)(=O)C3CC3)ccc2F)[C@@H]2CN(CCCN3CCC(F)(F)CC3)C[C@@H]21 [Example 15-(b), N-(3-{(1R,5S,6r)-3-[3-(4,4-difluoropiperidin-1-yl)propyl]-6-ethyl-3-azabicyclo[3.1.0]hexan-6-yl}-4-fluorophenyl)cyclopropanesulfonamide hydrochloride]	3.1 mg/kg	71.5 nM	1300 nM	0.1	182
CC[C@]1(c2cc(NS(=O)(=O)C3CC3)ccc2F)[C@@H]2CN(CC3(O)Cc4ccccc4C3)C[C@@H]21 [Example 2-(b), N-(3-{(1R,5S,6r)-6-ethyl-3-[(2-hydroxy-2,3-dihydro-1H-inden-2-yl)methyl]-3-azabicyclo[3.1.0]hexan-6-yl}-4-fluorophenyl)cyclopropanesulfonamide hydrochloride]	0.83 mg/kg	21.4 nM	160 nM	0.006	1250
CC[C@]1(c2cc(F)cc(NS(=O)(=O)C3CC3)c2)[C@@H]2CN(CC3(O)Cc4ccccc4C3)C[C@@H]21 [Example 10-(b), N-(3-{(1R,5S,6r)-6-ethyl-3-[(2-hydroxy-2,3-dihydro-1H-inden-2-yl)methyl]-3-azabicyclo[3.1.0]hexan-6-yl}-5-fluorophenyl)cyclopropanesulfonamide hydrochloride]	1.8 mg/kg	129 nM	62 nM	0.102	5
CC[C@]1(c2cccc(NS(=O)(=O)C3CC3)c2)[C@@H]2CN(CCCN3CCC(F)(F)C3)C[C@@H]21 [Example 8-(b), N-(3-{(1R,5S,6r)-3-[3-(3,3-difluoropyrrolidin-1-yl)propyl]-6-ethyl-3-azabicyclo[3.1.0]hexan-6-yl}phenyl)cyclopropanesulfonamide hydrochloride]	2 mg/kg	10.9 nM	340 nM	0.316	99
CC[C@]1(c2cccc(NS(=O)(=O)C3CC3)c2)[C@@H]2CN(CCCC3CCC(F)(F)CC3)C[C@@H]21 [Example 4-(b), N-(3-{(1R,5S,6r)-3-[3-(4,4-difluorocyclohexyl)propyl]-6-ethyl-3-azabicyclo[3.1.0]hexan-6-yl}phenyl)cyclopropanesulfonamide hydrochloride]	0.5 mg/kg	31.6 nM	94 nM	0.019	157

Reference: patent US9663463B2, “3-azabicyclo[3.1.0]hexane derivative and use thereof for medical purpose” (priority 2013, dated 2017)
